Experimental data reported in US20250009743A1, “METHODS OF TREATING CANCERS USING STING AGONISTS” (Dana-Farber Cancer Institute, Inc., priority 2021, published 2025).

Experiments:
orthotopic BP tumors = assay: BP (Brca1−/− Trp53−/−) orthotopic tumor growth in FVB mice; type: in vivo, mouse
Experimental: Primary mammary tumor cells for orthotopic injection were resuspended in serum-free DMEM containing 40% matrigel (Corning). […] Tumor growth was examined by measuring the greatest longitudinal diameter (length) and the greatest transverse diameter (width) with digital calipers, and tumor volume was calculated by use of the modified ellipsoid formula (0.52×length×width2). Tumors were measured 2-3 times a week. All tumor measurements within single cohorts were performed by the same researcher. Tumor-bearing mice were randomized prior to start of treatment. Drug treatments were started when mean tumor volumes approximated 50-100 mm3. Mice were euthanized by CO2 inhalation when tumor volumes met humane endpoints described in the IACUC (20 mm diameter) protocols or upon severe health deterioration.
For intratumoral injection (i.t.), 250 μg DMXAA (approximately 10 mg/kg body weight) was administered once per week for 3 doses. For i.p. injections, DMXAA was administered at a dose of 10 mg/kg body weight once weekly and terminated if tumor size exceeded 600 mm3. […] Anti-mouse CSF1R antibody (CS7, Eli Lilly) was dosed at 40 mg/kg via i.p. every 3 days.

[1] = tested on: mouse bone marrow-derived macrophages (BMDMs); assay: Polarization of mouse BMDMs / tumor cell-educated macrophages (flow cytometry, RNA-seq, morphology); type: cell-based
Experimental: Mouse macrophages and dendritic cells (DCs) were derived from the bone marrow (BM) of FVB/NJ mice by modifying protocols described in (Weischenfeldt J, Porse B. CSH Protoc 2008; Guo X, et al. J Immunol Methods 2016; 432:24-9). For generation of BM-derived macrophages (BMDMs), BM cells were seeded on ultra-low attachment plates (Corning) or petri dishes (Falcon) and cultured in DMEM supplemented with 10 ng/ml M-CSF (BioLegend, #576404), 10% FBS and 100 μg/mL penicillin-streptomycin. Fresh DMEM with 10 ng/ml M-CSF was added after 3 days, and cells were incubated for another 4 days before harvesting adherent cells (BMDMs). For DC differentiation, BM cells were seeded on tissue culture dishes (Corning) and cultured in RPMI 1640 supplemented with 20 ng/mL GM-CSF (Stem Cell Technologies, #78017), 10% FBS and 100 μg/mL penicillin-streptomycin. Fresh RPMI 1640 with 20 ng/mL GM13 CSF was added after 3 days, and non-adherent cells (DCs) were harvested after another 4 days. For preparation of tumor cell-conditioned media (CM), tumor cells were grown to 60% of confluence, washed twice with PBS, and then incubated with fresh DMEM for two days. CM were then harvested and centrifuged to collect the supernatant.
For flow cytometry analyses of tumor and TDLN samples, single-cell suspensions were obtained as described above (Tissue Digestion). Cells were stained in cold FACS buffer (PBS containing 0.2% BSA and 5 mM EDTA) with LIVE/DEAD Fixable Aqua Dead Cell Stain (Thermo Fisher) for 30 min on ice, followed by blocking with anti-CD16/32 (BioLegend) for 20 min on ice. Cells were then incubated in FACS buffer for 30 min on ice with antibodies specific to CD45 (clone 30-F11, BioLegend), TCR β chain (clone H57-597, BioLegend), CD38 (clone 145-2C11, BioLegend), CD4 (clone RM4-5, BioLegend), CD8a (clone 53-6.7, BioLegend), PD-1 (clone 29F.1A12, BioLegend), CD44 (clone IM7, BioLegend), CD62L (clone MEL-14, BioLegend), IFN-γ (clone XMG1.2, BioLegend), TNF-α (clone MP6-XT22, BioLegend), Granzyme B (clone NGZB, eBioscience), CD11c (clone N418, BioLegend), I-A/I-E (clone M5/114.15.2, BioLegend), CD80 (clone 16-10A1, BioLegend), CD86 (clone GL-1, BioLegend), CD103 (clone 2E7, BioLegend), CD11b (M1/70, BioLegend), F4/80 (clone BM8, BioLegend), phospho-TBK1 (Ser172) (clone D52C2, Cell Signaling Tech.) or phospho-IRF-3 (Ser396) (clone D601M, Cell Signaling Tech.). For intracellular staining, Foxp3/Transcription Factor Staining Buffer Set (eBioscience, #00-5523-00) was used for fixation and permeabilization. For cytokine analysis, cells were stimulated with Leukocyte Activation Cocktail with protein transport inhibitor Brefeldin A (BD Biosciences, #550583) at 37° C. for 4 hours prior to the staining. Analysis of ϵ-HA2X (Ser139) was performed according to manufacturer's instructions. Briefly, ice-cold 70% ethanol (Decon) was added dropwise to the cell pellet while vortexing. Cells were then incubated at −20° C. for 1 hour and washed three times with cold staining buffer. For the staining, 5 μL p-HA2X antibody (clone 2F3, BioLegend) was added to approximately 1×10^6 cells in 100 μL staining buffer and incubated at 4° C. for 30 min. For Annexin V and 7-AAD staining, cells were detached with accutase (Sigma, #A6964). The detached cells (from culture medium and accutase treatment) were washed twice with cold PBS, and then incubated with 5 μL FITC Annexin V (BioLegend, #640906) and 10 μL 7-AAD (BioLegend, #420404) in 100 μL Annexin V binding buffer (BioLegend, #422201) at room temperature for 15 min. Flow cytometry was performed on an LSR Fortessa HTS analyzer (BD Biosciences). All data were analyzed using FlowJo software.
For in vitro co-culture of tumor cells with macrophages, 2×10^5 tumor cells per well were co-cultured with macrophages at a ratio of 1:1 (BP cells: mouse BMDMs) or 1:1.5 (MDA-MB-436 cells: THP-1 macrophages) in 6-well plates with indicated drug treatments or DMSO vehicle control for two days. […]

[2] = tested on: BMDMs generated from FVB/NJ mice; assay: Polarization of mouse BMDMs cultured in PBM / PBM-R conditioned medium; type: cell-based
Experimental: For ex vivo culture of mouse macrophages, bone marrow cells were isolated from FVB/NJ mice and cultured in DMEM containing 10% FBS, 55 μM 2-Mercaptoethanol and 20 ng/ml M-CSF. BMDMs (bone marrow derived macrophages) were harvested on day 7 and further cultured in 2.0 ml control medium (90% DMEM, 10% FBS, 55 μM 2-Mercaptoethanol and 5 ng/ml M-CSF) described above or the medium containing 50% tumor cell conditioned medium for 72 hrs before analysis. For the tumor cell conditioned medium, about 3×10^5 tumor cells were cultured in 6-well plate for 24 hrs and then treated with DMSO or olaparib. After 24 hrs incubation with DMSO or olaparib, the tumor cells were washed twice with PBS and cultured in DMEM containing 10% FBS for 48 hrs. The tumor cell conditioned medium was collected by centrifugation at 1,500 g for 5 min at 4° C. to remove all the debris and cells. For the cytokine blocking experiment, monoclonal antibodies that specific to each cytokine were added to the tumor cell conditioned medium before it was applied to culture macrophages.

[3] = olaparib 50 mg/kg i.p. q.d., DMXAA 10 mg/kg intratumoral once per week, 3 doses, start around 100 mm3, FIG. 9A
[4] = BMDMs with BP-CM or BP/OL-CM, DMXAA 0.05 mg/mL, 24 hours, FIG. 7A

SMILES | BP tumor growth (orthotopic BP tumors; [3]) | CD86 expression of STING−/− TEMs ([1]; BMDMs from STING knockout mice, DMXAA 2 days, FIG. 7F) | macrophage morphology ([1]; BMDMs incubated with BP-CM, DMXAA 0.05 mg/mL, 24 hours, FIG. 8B) | expression of genes of anti-tumorigenic M1 signature [1, 4] | expression of pro-tumorigenic M2 genes [1, 4] | M1-like to M2-like ratio of TEMs ([1]; BP TEMs, DMXAA 0.05 mg/mL, two days, FIG. 7C) | TEM STING pathway activation (p-TBK1+p-IRF3+) ([1]; BP TEMs, DMXAA 24 hours, FIG. 7D) | M1/M2 ratio ([2]; BMDMs in 50% PBM-R-CM, ADU-S100 10 μM or MSA-2 5 ug/ml, two days, FIG. 21B) | BP tumor growth (orthotopic BP tumors; olaparib 50 mg/kg i.p. daily, FIG. 1C) | gene expression of BMDMs (RNA-seq) ([1]; olaparib 5 μM, 24 hours, FIG. 3C) | macrophage polarization (M1-like / M2-like) ([1]; olaparib alone, two days, FIG. 3B) | M2-like TAM polarization of BMDMs by CM from olaparib-treated PBM cells (PBM-OLA-CM) ([2]; FIG. 19E)
Cc1ccc2c(=O)c3cccc(CC(=O)O)c3oc2c1C [DMXAA, 5,6-dimethyl-xanthenone-4-acetic acid] | modest tumor growth inhibition | failed to increase | changed these cells to a “fried egg” shape | strongly stimulated | suppressed | reversed TEMs to M1-like macrophages | significantly increased |  |  |  |  | 
COc1cc2cc(C(=O)CCC(=O)O)sc2cc1OC [MSA-2] |  |  |  |  |  |  |  | significantly increased |  |  |  | 
O=C(c1cc(Cc2n[nH]c(=O)c3ccccc23)ccc1F)N1CCN(C(=O)C2CC2)CC1 [olaparib] | modest tumor growth inhibition |  |  |  |  |  |  |  | modest | no significant direct effects | little effect | stronger effect on M2-like TAM polarization of BMDMs than PBM-CM
